The values that follow come from patent US20220127258A1, “AROMATIC RING OR HETEROAROMATIC RING COMPOUNDS, PREPARATION METHOD THEREFOR AND MEDICAL USE THEREOF” (The National Institutes of Pharmaceutical R&D Co., Ltd., priority 2019, published 2022).

Each structure is given as a SMILES string.

One data set concerns the target T1, FXR (Homo sapiens, UniProt Q96RI1).
T1 sequence (Q96RI1 262-486 limits assumed): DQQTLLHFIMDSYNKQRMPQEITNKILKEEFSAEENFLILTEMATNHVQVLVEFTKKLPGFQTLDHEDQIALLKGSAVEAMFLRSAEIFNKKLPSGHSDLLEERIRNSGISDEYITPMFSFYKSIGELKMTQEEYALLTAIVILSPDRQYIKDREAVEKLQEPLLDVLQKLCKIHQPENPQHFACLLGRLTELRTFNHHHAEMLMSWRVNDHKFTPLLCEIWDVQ
As to the kind of experiment: FXR agonistic activity, luciferase assay. It is filed as cell-based. Particulars: luc2P-GAL4-HEK293 cells transfected with pBIND-FXR, 24 hours. The protocol:
The FXR agonistic activity of the compound of the present invention was evaluated using the luciferase assay.
The experimental process comprises the follows. The luc2P-GAL4-HEK293 stably transfected cell line (the cell line was established by transfecting pGL4.35 plasmid with HEK293 cells which was then subjected to Hygromycin B screening. The cell contained 9×GAL4 UAS and firefly luciferase reporter gene. The ligand-activated LBD-GAL4 DBD fusion protein can enter the nucleus to bind to 9×GAL4 UAS and activate the transcription of the downstream luciferase reporter gene) was transferred to a 96-well plate with […] per well. pBIND-FXR (Which was constructed by inserting FXR-LBD into pFN26A-BIND hRluc-neo Flexi® vector. The plasmid was 7.5 kb in size, Amp resistant, contained FXR-LBD, and can express FXR-LBD and GAL4 DBD fusion proteins) was transfected using X-tremeGENE HP transfection reagent. The ratio of plasmid to transfection reagent was 1 μg: 2 μl. The specific amount was 100 ng of plasmid and 0.2 μl of X-tremeGENE HP transfection reagent per well. The test compounds (the highest concentration of each compound was 30 μM, 3-fold dilution, a total of 10 concentrations) were added to induce the expression of luciferase. After 24 hours, the 96-well plate containing the test cells was taken out from the incubator, and placed at room temperature. Dual-Glo® Luciferase Reagent with the volume equal to the volume of the medium in the well (80 μl/well) was added to each well and mixed well. The plate was incubated at room temperature for 20 minutes to allow the cells to be fully lysed. All the liquid in the plate was transferred to a 96-well microtiter plate, and the firefly luciferin value was measured with a multi-function plate reader (manufacturer: Bio Tek (USA); model: Synergy4). Dual-Glo® a Stop & Glo® Reagent with the volume equal to the volume of the initial medium (80 μl/well) was added to each well and mixed well. The plate was incubated at room temperature for 10 minutes, and the renilla luciferin value was measured. The measurement order of renilla fluorescence should be the same as that of firefly fluorescence. Curve fitting and EC50 calculation were conducted using GraphPad Prism 5 software by nonlinear regression method. The fitting equation is: Y=Bottom+(Top−Bottom)/(1+10^((Log EC50−X)*HillSlope)), wherein EC50 refers to the semi-effective concentration, Top refers to the maximum effect, Bottom refers to the blank effect, and HillSlope refers to the slope.

In data set [1] the test system is cholestasis rat induced by ANIT. Kind of data set: Efficacy on the cholestasis rat model induced by 1-naphthyl isothiocyanate (ANIT). Also noted: ALT / AST / GGT / TBA: unit not given here. It is filed as in vivo, SD rats. The following applies: for level of ALT, AST, GGT and TBA in the serum of ANIT rat (in words): 3 and 10 mg/kg/d, conclusion of Test Example 2; for ALT / AST / GGT / TBA: serum, 4 days, ANIT rat. As to the method:
Animals: SD rats, male, 7 to 8 weeks old, weight: 220 to 240 g, purchased from Beijing Vital River Laboratory Animal Technology Co., Ltd., SPF grade, Certificate No.: SCXK (Beijing) 2016-0011, license issuing administration: Beijing Municipal Commission of Science and Technology.
Sample formulation: The compound of the present invention was added to DMSO, and dissolved completely by ultrasound. 0.5% CMC-Na was added to constant volume (DMSO: 0.5% CMC-Na=1:99), and the solution was homogenized by ultrasound for later use.
After 3 to 5 days of acclimation, the animals were divided into 20 groups according to body weight: normal group, model group, Example 8 (3 mg/kg/d, 10 mg/kg/d) group, Example 11 (3 mg/kg/d, 10 mg/kg/d) group, Example 12 (3 mg/kg/d, 10 mg/kg/d) group, Example 14 (3 mg/kg/d, 10 mg/kg/d) group, Example 20 (3 mg/kg/d, 10 mg/kg/d) group, Example 22 (3 mg/kg/d, 10 mg/kg/d) group, Example 26 (3 mg/kg/d, 10 mg/kg/d) group, Example 28 (3 mg/kg/d, 10 mg/kg/d) group, and Example 29 (3 mg/kg/d, 10 mg/kg/d) group, with 10 rats for each group. Intragastric administration was conducted with an administration volume of 10 mL/kg, once a day, for a total of 4 days. On Day 2, ANIT (1-naphthyl isothiocyanate, Macklin, purity: 98%, item number: N814658, CAS number: 551-06-4, specification: 5 g/bottle, storage conditions: 2 to 8 degrees, batch number: C10116101) with a dose of 50 mg/kg and an administration volume of 5 mL/kg was administered intragastrically once to each animal (except for animals in the normal group) 4 hours after the administration. The animals were fasted on Day 4 morning. The animals were anesthetized by isoflurane inhalation using a small animal anesthesia machine. Blood was collected from the venous plexus behind the eyeball using a capillary glass tube (about 1 ml per animal), and then left to stand for about one hour. It was centrifuged at 3500 rpm for 10 minutes to obtain the serum. ALT, AST, GGT and TBA indexes as well as the plasma concentration of the compound were determined using an AU480 automatic biochemical analysis system (BECKMAN COULTER). Liver was collected, weighed, and cutted into pieces. Normal saline was added (liver weight: normal saline=1:2), and the mixture was homogenized and freezed. The concentration of the compound in liver was determined using an ultra performance liquid chromatograph (Shimadzu, LC 30AD) and triple quadrupole mass spectrometer (AB, TQ5500).

Data set [2] in a line: Visual inspection of solubility of test sample in extracellular fluid. It is filed as physicochemical. The following applies: 1 nM to 1 μM in extracellular fluid pH 7.4, DMSO 0.1%. The protocol: Extracellular fluid: 140 mM NaCl, 3.5 mM KCl, 1 mM MgCl2, 2 mM CaCl2, 10 mM glucose, 10 mM HEPES, 1.25 mM NaH2PO4, pH=7.4 (adjusted by NaOH). The stock solution of the compound of Example 8 of the present invention (30.26 mM solution in DMSO) was successively diluted with 10 mL of extracellular fluid to obtain 0.3 μM, 1 μM, 3 μM, […], and 30 μM solutions. […] 10 mg of Cisapride was dissolved in 2066.29 μL of dimethyl sulfoxide (DMSO) to obtain a 10 mM stock solution. The Cisapride stock solution was successively diluted with dimethyl sulfoxide (DMSO) to obtain a total of 4 concentrations of 1 μM, 10 μM, 100 μM and 1 mM. Before the test, 10 μL of the diluent at each concentration was added to 10 mL of extracellular fluid to ensure that the DMSO concentration was 0.1%. The final working concentration of Cisapride was 1 nM, 10 nM, 100 nM and 1 μM.

For the compound `O=C(O)c1cccc(-c2nnc(N3[C@@H]4CC[C@H]3C[C@@H](OCc3c(-c5ccccc5OC(F)(F)F)noc3C3CC3)C4)o2)c1` [Example 28], the EC50 at FXR is less than 25 nM. The “level of ALT, AST, GGT and TBA in the serum of ANIT rat (in words)” value (from here on “level of ALT, AST, GGT and TBA”) in data set [1] is given as “significantly reduce”. In data set [1] (3 mg/kg/d intragastric), the ALT came out at 147.1 ± 66.2, the AST was 342.7 ± 153.6, the GGT is 2.3 ± 0.5 and the TBA amounted to 66.2 ± 58.4. In data set [1] (10 mg/kg/d intragastric), this compound yielded an ALT of 46.6 ± 12.1, an AST of 150.8 ± 28.7, a GGT of 1.9 ± 0.5 and a TBA of 20.5 ± 6.0.

On to `O=C(O)c1ccc(-c2nnc(N3[C@@H]4CC[C@H]3C[C@@H](OCc3c(-c5c(Cl)cccc5Cl)noc3C3CC3)C4)o2)cc1F` [Example 12], for which the EC50 on FXR is 100 to 500 nM. Besides, the “level of ALT, AST, GGT and TBA” value in data set [1] is given as “significantly reduce”. Further, in data set [1] (3 mg/kg/d intragastric), the ALT came out at 122.5 ± 89.7, the AST is reported as 314.2 ± 237.9, the GGT was found to be 2.2 ± 0.8 and the TBA was 69.0 ± 66.7. In data set [1] (10 mg/kg/d intragastric), this compound had an ALT of 54.7 ± 27.3, an AST of 139.3 ± 34.6, a GGT of 1.9 ± 0.5 and a TBA of 25.4 ± 14.3.

As for `O=C(O)c1ccc(-c2nnc(N3[C@@H]4CC[C@H]3C[C@@H](OCc3c(-c5ccccc5OC(F)(F)F)noc3C3CC3)C4)o2)cc1F` [Example 26], at FXR, the EC50 lay within 100 to 500 nM. Further, the “level of ALT, AST, GGT and TBA” value in data set [1] was “significantly reduce”. For the same compound, in data set [1] (3 mg/kg/d intragastric), the ALT is given as 62.2 ± 27.6, the AST was 187.7 ± 50.4, the GGT amounted to 1.9 ± 0.8 and the TBA is given as 23.2 ± 10.1. In data set [1] (10 mg/kg/d intragastric), the ALT is on record as 50.0 ± 11.2, the AST worked out at 162.3 ± 27.7, the GGT is listed as 1.4 ± 0.7 and the TBA is listed as 35.3 ± 13.2.

Consider `COc1cc(N)c(Cl)cc1C(=O)NC1CCN(CCCOc2ccc(F)cc2)CC1OC` (centres unmarked) [Cisapride, reference compound], for which, in data set [2], the “solubility, visually inspected” value is given as “completely dissolved without visible precipitation”.

Consider `O=C(O)c1csc(-c2nnc(N3[C@@H]4CC[C@H]3C[C@@H](OCc3c(-c5c(Cl)cccc5Cl)noc3C3CC3)C4)o2)c1` [Example 20], for which, on FXR, the EC50 was 50 to 100 nM. In data set [1] (3 mg/kg/d intragastric), this compound came in with an ALT of 141.5 ± 101.4, an AST of 400.2 ± 304.4, a GGT of 2.8 ± 1.2 and a TBA of 119.5 ± 124.7. Besides, in data set [1] (10 mg/kg/d intragastric), the ALT turned out to be 50.9 ± 22.4, the AST was determined as 139.8 ± 58.4, the GGT came to 2.6 ± 0.5 and the TBA is listed as 16.1 ± 8.0.

As for `O=C(O)c1ccc(-c2nnc(N3[C@@H]4CC[C@H]3C[C@@H](OCc3c(-c5ccccc5OC(F)(F)F)noc3C3CC3)C4)o2)c(F)c1` [Example 29], the EC50 at FXR was 100 to 500 nM. Further, the “level of ALT, AST, GGT and TBA” value in data set [1] was “significantly reduce”. In data set [1] (3 mg/kg/d intragastric), this compound gave an ALT of 82.0 ± 44.5, an AST of 256.0 ± 168.8, a GGT of 2.3 ± 1.1 and a TBA of 51.7 ± 65.2. Further, in data set [1] (10 mg/kg/d intragastric), the ALT is listed as 77.8 ± 69.5, the AST turned out to be 189.4 ± 76.9, the GGT turned out to be 1.9 ± 0.4 and the TBA is on record as 26.8 ± 13.6.
